Source: the CheMixHub drug solubility set

Assay: xn = mol fraction of the nth substance listed, in the solute-free solvent

Nc1ncc(Br)nc1Br + OCCO + O
solubility (g/100 g solution)
Conditions	278.15 K	283.15 K	288.15 K	293.15 K	298.15 K	303.15 K	308.15 K	313.15 K	318.15 K	323.15 K
x2 = 0.03125	0.00637	0.0078	0.00922	0.0109	0.0127	0.0144	0.0164	0.0186	0.0208	0.0231
x2 = 0.06767	0.0106	0.0129	0.0152	0.018	0.0209	0.0235	0.0267	0.0302	0.0336	0.0373
x2 = 0.1107	0.0164	0.02	0.0235	0.0276	0.032	0.036	0.0408	0.0459	0.0511	0.0566
x2 = 0.1622	0.0238	0.0288	0.0338	0.0398	0.046	0.0518	0.0585	0.0657	0.0731	0.0809
x2 = 0.225	0.0307	0.0375	0.0446	0.0526	0.0606	0.0684	0.0774	0.0866	0.0965	0.108
x2 = 0.3034	0.0394	0.0471	0.0562	0.0663	0.0766	0.0874	0.0983	0.111	0.124	0.138
x2 = 0.4038	0.0467	0.0558	0.0667	0.0788	0.0911	0.104	0.118	0.133	0.148	0.164
x2 = 0.5373	0.0508	0.0614	0.0739	0.0875	0.103	0.116	0.132	0.148	0.165	0.184
x2 = 0.7232	0.0528	0.0647	0.077	0.0912	0.106	0.12	0.137	0.154	0.173	0.194

c1ccc2c(c1)CCc1ccccc1N2 + OCCO + O
solubility (g/100 g solution)
Conditions	283.15 K	288.15 K	293.15 K	298.15 K	303.15 K	308.15 K	313.15 K	318.15 K	323.15 K	328.15 K
x2 = 0.03125	0.0117	0.0166	0.0228	0.032	0.0373	0.0524	0.0651	0.088	0.117	0.153
x2 = 0.06775	0.0425	0.0584	0.0728	0.0999	0.124	0.165	0.207	0.265	0.333	0.406
x2 = 0.1107	0.0709	0.0954	0.123	0.162	0.202	0.258	0.32	0.397	0.49	0.598
x2 = 0.1615	0.0799	0.106	0.135	0.174	0.214	0.272	0.331	0.404	0.491	0.593
x2 = 0.2258	0.0897	0.118	0.144	0.179	0.221	0.265	0.32	0.381	0.455	0.558
x2 = 0.3035	0.0971	0.123	0.148	0.178	0.215	0.256	0.304	0.359	0.421	0.515
x2 = 0.4027	0.107	0.131	0.154	0.184	0.223	0.261	0.313	0.359	0.402	0.47
x2 = 0.5389	0.114	0.14	0.166	0.197	0.232	0.272	0.308	0.353	0.401	0.458
x2 = 0.7239	0.117	0.139	0.167	0.197	0.231	0.263	0.296	0.329	0.366	0.411
